Measurements taken from patent publication US6268220A, “Diagnostic method for atherosclerosis” (Washington University, priority 1996, dated 2001).
“Also recorded” adds a separate entry of the source.

Assays:
[1] = test system: apolipoprotein B100 of LDL; test: Production of 3-chlorotyrosine in LDL modified by different oxidation systems; format: biochemical, human; details: 37° C.; for 3-chlorotyrosine content of LDL exposed to oxidation system: LDL 512 μg protein/ml, pH 7.4, 60 min or 24 h, FIG. 2, result in words
Method: FIG. 2 show production of 3-chlorotyrosine in LDL modified by different oxidation systems. LDL (512 μg protein/ml) was incubated at 37° C. in phosphate buffered saline (10 mM sodium phosphate, 150 mM NaCl, pH 7.4) alone (Control) or with the indicated oxidation system. The complete myeloperoxidase-H2 O2 --Cl^- system consisted of 20 nM myeloperoxidase and 100 μM H2 O2. HOCl was used at 100 μM. Horseradish peroxidase (10 μg/ml and lactoperoxidase (10 μg/ml) were used with 100 μM H2 O2. LDL was exposed to myeloperoxidase, HOCl, horseradish peroxidase and lactoperoxidase for 60 min.
All other oxidation reactions were carried out for 24 h. Final concentrations of oxidants were: peroxynitrite, 100 μM; CuSO4, 10 μM; CuSO4 and H2 O2, 100 μM and 2 mM, respectively; FeSO4, 10 μM; hemin, 10 μM; and glucose, 100 mM. LDL oxidation by lipoxygenase was performed in 50 mM borate, 150 mM NaCl supplemented with phospholipase A2 as previously described (45).
Reaction products were delipidated, acid hydrolyzed, and the 3-chlorotyrosine content of the amino acid hydrolysate determined by stable isotope dilution GC-MS analysis. Values are the mean of duplicate determinations. […] HRP, horseradish peroxidase; MPO, myeloperoxidase-peroxidase.
The complete system consisted of Buffer B (20 mM Na[PO4 ], pH 7.0, 100 μM DTPA) supplemented with LDL (512 μg protein/ml), myeloperoxidase (MPO; 40 nM), H2 O2 (100 μM) and Cl^- (as NaCl; 100 mM). After a 1 h incubation at 37° C., the 3-chlorotyrosine content was determined by stable isotope dilution GC-MS as described under "Methods." The limit of detection of the assay was <0.1 umol 3-chlorotyrosine per mol L-tyrosine. Values are the mean of duplicate determinations.

[2] = target: T1, myeloperoxidase (Homo sapiens, UniProt P05164); test: Chlorination of apolipoprotein B100 of LDL by the myeloperoxidase-H2O2-Cl- system (3-chlorotyrosine by GC-MS); format: biochemical; details: for 3-Chlorotyrosine/L-Tyrosine: Complete system (LDL 512 μg protein/ml, MPO 40 nM, H2O2 100 μM, Cl- 100 mM) plus additive at printed concentration, 1 h, 37° C., complete system alone 50, detection limit <0.1
T1 construct: light and heavy chains, homodimer) with H2O2, chloride and human LDL as substrate
T1 sequence (P05164 49-745): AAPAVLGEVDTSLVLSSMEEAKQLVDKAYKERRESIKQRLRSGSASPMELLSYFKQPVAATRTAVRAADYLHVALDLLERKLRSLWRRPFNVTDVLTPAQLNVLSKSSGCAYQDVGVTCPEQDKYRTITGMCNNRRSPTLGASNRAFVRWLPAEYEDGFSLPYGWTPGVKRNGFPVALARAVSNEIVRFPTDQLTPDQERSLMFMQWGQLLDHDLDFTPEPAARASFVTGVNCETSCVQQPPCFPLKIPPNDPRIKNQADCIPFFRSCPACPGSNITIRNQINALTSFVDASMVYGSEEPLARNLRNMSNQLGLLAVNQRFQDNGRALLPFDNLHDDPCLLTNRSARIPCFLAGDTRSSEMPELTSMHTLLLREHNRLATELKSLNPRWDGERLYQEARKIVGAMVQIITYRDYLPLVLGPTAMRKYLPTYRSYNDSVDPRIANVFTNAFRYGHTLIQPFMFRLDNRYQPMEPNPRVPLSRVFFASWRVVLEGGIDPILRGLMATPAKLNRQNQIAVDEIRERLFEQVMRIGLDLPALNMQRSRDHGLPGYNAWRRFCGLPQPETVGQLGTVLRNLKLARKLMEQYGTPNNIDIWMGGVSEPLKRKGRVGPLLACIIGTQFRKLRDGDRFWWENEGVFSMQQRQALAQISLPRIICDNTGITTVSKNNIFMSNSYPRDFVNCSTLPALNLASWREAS
Method: (§1) General Procedures--All glassware was rendered chlorine-demand free (<3% consumption of 1 mM HOCl in a 10 min incubation at 37° C. within a gas-tight vial as monitored by the oxidation of iodide to triiodide) prior to use (12,25,27). […] Myeloperoxidase (donor: hydrogen peroxide, oxidoreductase, EC 1.11.1.7) was isolated (final A430 /A280 ratio of 0.6) as previously described (28,29). Enzyme concentration was determined spectrophotometrically ε430 =[…] cm^-1; ref. 30). Human neutrophils were isolated by buoyant density centrifugation (31). Medium A (Hank's balanced salt solution (magnesium-, calcium-, phenol- and bicarbonate-free; Gibco-BRL, Gaithersburg, Md.), pH 7.2, supplemented with 100 μM diethylenetriamine pentaacetic acid (DTPA) was used for neutrophil isolation and experiments.
Following the addition of 10 pmol 3-[^13 C6 ]chlorotyrosine and 100 nmol L-[^13 C6 ]tyrosine, delipidated and dialyzed protein (~1-4 mg) suspended in Buffer B was dried under vacuum in a glass reaction vial. Each vial then received 0.5 ml HBr (6 N) containing 1% phenol. […]
Mass Spectrometric Analysis--n-Propyl, perheptafluorobutyl (HFB) and n-propyl, perpentafluoroproprionyl (PFP) derivatives of amino acids were prepared (38) and analyzed on a Hewlett Packard 5890 Gas Chromatograph interfaced with a Hewlett Packard 5988A Mass Spectrometer equipped with extended mass range. […]
Amino acids were quantified utilizing stable isotope dilution GC-MS analysis in the negative-ion chemical ionization mode (25,26). 3-Chlorotyrosine was monitored as its n-propyl-per-HFB derivative utilizing selected ion monitoring of the base peak at mass-to-charge ratio (m/z) 451 (M^.- -HFB), another prominent ion at m/z 629 (M^.- -HF), and their isotopically labeled internal standard ions at m/z 457 and 635, respectively.
L-Tyrosine was monitored as its n-propyl-per-HFB derivative using the base peak at m/z 417 (M^.- -HFB), another major ion at m/z 595 (M^.- -HF), and their labeled internal standard ions at m/z 423 and 601, respectively. […]

[3] = test system: Human neutrophils; test: Formation of 3-chlorotyrosine in LDL exposed to activated human phagocytes; format: cell-based; details: FIG. 1
Method: Human neutrophils (1×10^6 /ml) were incubated at 37° C. in Hank's Balanced Salt Solution supplemented with DTPA (100 μM) and LDL (512 μg protein/ml). Neutrophils were activated with phorbol ester (PMA; 200 nM) and maintained in suspensions by intermittent inversion (Complete neutrophil system).
Following a 60 min incubation, neutrophils were removed by centrifugation. The supernatant was delipidated and dialyzed, ^13 C-labeled internal standards were added, and the samples were then subjected to acid hydrolysis. The content of L-tyrosine and 3-chlorotyrosine in acid hydrolysates were determined by stable isotope dilution GC-MS analysis as described under "Method", below.
Additions or deletions to the complete system were as indicated. The final concentrations of additions were:
3-Chlorotyrosine content of LDL is normalized to the content of the precursor amino acid L-tyrosine. Values are the mean of duplicate determinations.
as §1

[4] = PMA-activated human neutrophils 1×10^6/ml, 60 min, 37° C., additive to complete neutrophil system

## OCl [HOCl, hypochlorous acid]
[1]
  3-chlorotyrosine content of LDL exposed to oxidation system: resulted in 3-chlorotyrosine formation; also recorded: Significant levels
[1]; LDL + HOCl (100 μM), no enzyme, 1 h
  3-Chlorotyrosine/L-Tyrosine: 68 umol/mol

## [N-]=[N+]=[N-].[Na+] [NaN3]
[2]
  3-Chlorotyrosine/L-Tyrosine: 0 umol/mol
[3]; [4]
  3-chlorotyrosine production in LDL incubated with activated phagocytes: inhibited

## O=S(=O)([O-])[O-].[Cu+2] [copper, CuSO4]
[1]
  3-chlorotyrosine content of LDL exposed to oxidation system: little change

## C[C@H](CCC(=O)O)C[C@H](C)C[C@H](C)C(=O)/C=C(\O)[C@H](C)C[C@H](C)C/C=C/[C@@H](C)[C@@H](O)[C@@H](C)[C@@H](O)C[C@@H]1CC[C@@](C)([C@H]2CC[C@@](C)([C@@H](C)O)O2)O1 [ionomycin]
[3]; ionomycin (1 μM) added together with superoxide dismutase (10 μg/ml)
  3-chlorotyrosine production in LDL incubated with activated phagocytes: further generation

## O=S(=O)([O-])[O-].[Fe+2] [iron, FeSO4]
[1]
  3-chlorotyrosine content of LDL exposed to oxidation system: little change

## O=NOO [peroxynitrite]
[1]
  3-chlorotyrosine content of LDL exposed to oxidation system: little change

## glucose
[1]
  3-chlorotyrosine content of LDL exposed to oxidation system: little change

## horseradish peroxidase
[1]
  3-chlorotyrosine content of LDL exposed to oxidation system: little change

## lactoperoxidase
[1]
  3-chlorotyrosine content of LDL exposed to oxidation system: little change

## superoxide dismutase: catalyzes the conversion of O2.- into H2O2
[3]; [4]
  3-chlorotyrosine production in LDL incubated with activated phagocytes: further generation

B1: Catalase: a peroxide scavenger (protein, UniProt P00432 2-527, looked up)
Catalase: ADNRDPASDQMKHWKEQRAAQKPDVLTTGGGNPVGDKLNSLTVGPRGPLLVQDVVFTDEMAHFDRERIPERVVHAKGAGAFGYFEVTHDITRYSKAKVFEHIGKRTPIAVRFSTVAGESGSADTVRDPRGFAVKFYTEDGNWDLVGNNTPIFFIRDALLFPSFIHSQKRNPQTHLKDPDMVWDFWSLRPESLHQVSFLFSDRGIPDGHRHMNGYGSHTFKLVNANGEAVYCKFHYKTDQGIKNLSVEDAARLAHEDPDYGLRDLFNAIATGNYPSWTLYIQVMTFSEAEIFPFNPFDLTKVWPHGDYPLIPVGKLVLNRNPVNYFAEVEQLAFDPSNMPPGIEPSPDKMLQGRLFAYPDTHRHRLGPNYLQIPVNCPYRARVANYQRDGPMCMMDNQGGAPNYYPNSFSAPEHQPSALEHRTHFSGDVQRFNSANDDNVTQVRTFYLKVLNEEQRKRLCENIAGHLKDAQLFIQKKAVKNFSDVHPEYGSRIQALLDKYNEEKPKNAVHTYVQHGSHLSAREKANL
[2]
  3-Chlorotyrosine/L-Tyrosine: 0 umol/mol
[2]; additive to complete system, result in words
  Chlorination of apolipoprotein B100 (3-chlorotyrosine production) by myeloperoxidase-H2O2-Cl- system: blocked
[3]; [4]
  3-chlorotyrosine production in LDL incubated with activated phagocytes: inhibited
